In paper PMC8876959, “Comparative Evaluation of Radiochemical and Biological Properties of ^131I- and [^99mTc]Tc(CO)3-Labeled RGD Analogues Planned to Interact with the αvβ3 Integrin Expressed in Glioblastoma” (Pharmaceuticals, 2022):
“And” between values parts separate entries of the source, which are not always exact repeats. Equal values may be shown once.

What was measured:
[1] = Ex vivo biodistribution in normal (control) rats; design: species or system rat; settings: gamma counter, mean ± SEM, n = 3
Protocol: (§1) Adult male Sprague Dawley rats (280–320 g) were maintained under controlled environmental conditions (12 h light-dark cycle; constant temperature 21 ± 2 °C), with free access to water and food. Tumorigenic glioblastoma cells were implanted in the right frontal cortex, following specific coordinates (referred to bregma): anteroposterior = 1.0 mm; lateral = 3.0 mm; depth = 5.0 mm. An aliquot of culture medium (10 µL) containing 1 × 10^6 C6 cells in suspension was injected slowly (1 µL/min) using a Hamilton syringe positioned on a stereotaxic surgery frame. In the control group, only the culture medium, without cells, was injected. An interval of 20 days after cell inoculation was allowed for tumor development.
The ex vivo biodistribution of each radiolabeled peptide (4 MBq; 0.2 mL) was evaluated at 15, 60, and 240 min after IV injection in control and tumor-bearing animals (n = 3 per group, per time point). The molar activities in this study were 0.68 and 16.2 MBq/nmol for the iodine and tricarbonyl-labeled peptides, respectively. Animals were deeply anesthetized and sacrificed at the corresponding biodistribution time point. Brain, spleen, heart, stomach, liver, lungs, kidneys, and blood were collected and weighed. Then, their radioactivities were determined using the above-mentioned automatic gamma counter. The radioactivity of each organ/tissue was evaluated as the percentage of injected dose per gram of organ/tissue (% ID/g), using the same injected dose activity as a standard.

[2] = tested on: tumor-bearing glioblastoma brain homogenate (model); assay: Binding and internalization in brain homogenate of glioblastoma model rats; design: species or system rat; settings: 37 °C, n = 7
Protocol: (§2) An aliquot containing 2 × 10^6 C6 cells in supplemented DMEM-F12 culture medium (450 µL) was added to a vial and incubated with 10 nmol of the radiolabeled peptide at 37 °C with gentle agitation. The studies were evaluated at 1, 4 and 24 h (n = 7 for each time point). Then, the vials were centrifuged (604× g for 5 min). The radioactivities of the pellet and supernatant were separately evaluated using an automatic Wizard 3 2480 gamma counter (Perkin Elmer; Norwalk, CT, USA). The percentage of the bound fraction was calculated by Equation (1). (1) % bound fraction=Pellet radioactivity (cpm)/Pellet radioactivity (cpm)+supernatant radioactivity (cpm)×100
(§3) In the sequence, a second radioactivity determination was performed. For that, pellets were resuspended using 0.5 mL of acid buffer (0.2 M acetic acid in 0.5 M NaCl solution; pH 2.8) and maintained at room temperature for 5 min to remove the radiolabeled molecule attached to the cell membrane surface. Then, the vials were centrifuged (1677× g for 5 min). The pellet and supernatant were separated and their radioactivities were measured using the above-mentioned automatic gamma counter. The percentage of the internalized fraction of radiopeptides was estimated based on the ratio between the activity contained in the precipitate and the supernatant and calculated by Equation (2):(2) % internalized fraction=Pellet radioactivity (cpm)/Pellet radioactivity (cpm)+supernatant radioactivity (cpm)×100
as §1
Brain homogenates were prepared at the concentration of ~10 mg of wet tissue in 1000 µL of PBS (pH 7.4). Normal brain tissue (control) and tumor-bearing brain tissue (model) were used. A 25 µL aliquot (1.2 MBq/nmol) of each radiopeptide was added to 200 µL of freshly prepared homogenates (n = 7). The homogenates containing the radiolabeled peptides were incubated at 37 °C for 1, 4 and 24 h. Binding and internalization fractions were determined as described in Section 3.11.

[3] = tested on: serum proteins; assay: Serum protein binding (TCA precipitation); format: in vitro ADME; settings: 25 µL radiopeptide in 175 µL serum, 37 °C, 1 h; 10% TCA precipitation; gamma counter; n = 6
Protocol: Radiopeptides (25 μL) were added to 175 µL of serum (n = 6) and incubated at 37 °C for 1 h. After, 1 mL of 10% trichloroacetic acid (TCA) was added for the precipitation of proteins. The mixture was vortexed for 1 min and centrifuged at 1677× g for 10 min. This process was repeated three times. Both the supernatant’s and pellet’s radioactivity were measured in an automatic Wizard 3 2480 gamma counter (Perkin Elmer; Norwalk, CT, USA).

[4] = tested on: C6 tumorigenic cells; assay: Binding and internalization in C6 tumorigenic cells; format: cell-based, rat; settings: 37 °C; for Bound fraction: 2 × 10^6 cells, 10 nmol radiopeptide
Protocol: The C6 cells were incubated at 37 °C in a humidified atmosphere containing 5% CO2 and maintained in culture using Dulbecco’s Modified Eagle Medium (DMEM)—F12 (Gibco; Gaithersburg, MD, USA) supplemented with 10% fetal bovine serum (Sigma-Aldrich; Darmstadt, Germany) and 1% glutamine (Sigma-Aldrich; Darmstadt, Germany). Cells were grown to 75% confluence and then harvested by trypsinization (0.04% trypsin/EDTA). After centrifugation (151× g for 5 min), the cells were resuspended in DMEM—F12 to a final concentration of […] for the development of the glioblastoma animal model.
as §2, §3

[5] = glioblastoma model brain homogenate, 24 h

[^99mTc]Tc(CO)3-GRGDHV
Ex vivo biodistribution, Blood ([1]; 15 min after IV injection): 11.30 ± 0.84 %ID/g | Ex vivo biodistribution, Blood ([1]; 60 min after IV injection): 9.78 ± 0.52 %ID/g | Ex vivo biodistribution, Blood ([1]; 240 min after IV injection): 11.12 ± 1.27 %ID/g | Ex vivo biodistribution, Brain ([1]; 15 min after IV injection): 0.32 ± 0.01 %ID/g | Ex vivo biodistribution, Brain ([1]; 60 min after IV injection): 0.28 ± 0.03 %ID/g | Ex vivo biodistribution, Brain ([1]; 240 min after IV injection): 0.60 ± 0.04 %ID/g | Ex vivo biodistribution, Heart ([1]; 15 min after IV injection): 5.14 ± 0.12 %ID/g | Ex vivo biodistribution, Heart ([1]; 60 min after IV injection): 4.41 ± 0.23 %ID/g | Ex vivo biodistribution, Heart ([1]; 240 min after IV injection): 4.84 ± 0.37 %ID/g | Ex vivo biodistribution, Kidneys ([1]; 15 min after IV injection): 62.73 ± 2.17 %ID/g | Ex vivo biodistribution, Kidneys ([1]; 60 min after IV injection): 51.04 ± 1.49 %ID/g | Ex vivo biodistribution, Kidneys ([1]; 240 min after IV injection): 40.17 ± 0.90 %ID/g | Ex vivo biodistribution, Liver ([1]; 15 min after IV injection): 6.06 ± 0.79 %ID/g | Ex vivo biodistribution, Liver ([1]; 60 min after IV injection): 9.55 ± 1.34 %ID/g | Ex vivo biodistribution, Liver ([1]; 240 min after IV injection): 12.26 ± 1.34 %ID/g | Ex vivo biodistribution, Lungs ([1]; 15 min after IV injection): 7.76 ± 0.75 %ID/g | Ex vivo biodistribution, Lungs ([1]; 60 min after IV injection): 9.25 ± 1.65 %ID/g | Ex vivo biodistribution, Lungs ([1]; 240 min after IV injection): 8.59 ± 0.64 %ID/g | Ex vivo biodistribution, Spleen ([1]; 15 min after IV injection): 3.41 ± 0.41 %ID/g | Ex vivo biodistribution, Spleen ([1]; 60 min after IV injection): 3.69 ± 0.60 %ID/g | Ex vivo biodistribution, Spleen ([1]; 240 min after IV injection): 4.93 ± 0.45 %ID/g | Ex vivo biodistribution, Stomach ([1]; 15 min after IV injection): 3.09 ± 0.77 %ID/g | Ex vivo biodistribution, Stomach ([1]; 60 min after IV injection): 10.27 ± 0.59 %ID/g | Ex vivo biodistribution, Stomach ([1]; 240 min after IV injection): 10.78 ± 3.11 %ID/g | Bound fraction ([2]; glioblastoma model brain homogenate (~10 mg/1000 µL PBS pH 7.4), 1 h): ~ 50% | Internalized fraction ([2]; glioblastoma model brain homogenate, 1 h): ~ 79% | Bound fraction [2, 5]: ~ 78% | Internalized fraction [2, 5]: ~ 98% | Serum protein binding (SPB) [3]: ~50% and 49.97 ± 0.01% | Bound fraction ([4]; 1 h, n = 7): ~ 22% | Bound fraction ([4]; 4 h, mean ± SD, n = 7): 23.47% ± 1.78 | Bound fraction ([4]; 24 h, n = 7): ~ 8% | Internalized fraction ([4]; 1 h, acid buffer wash pH 2.8, n = 7): ~ 34% | Internalized fraction ([4]; 4 h, acid buffer wash pH 2.8, mean ± SD, n = 7): 54.24% ± 3.99 | Internalized fraction ([4]; 24 h, acid buffer wash pH 2.8, n = 7): ~ 74%
